This series deals with T1, β-glucosidase from Agrobacterium (Agrobacterium sp., UniProt P12614).
T1 construct: purchased Megazyme
T1 sequence (P12614 1-459): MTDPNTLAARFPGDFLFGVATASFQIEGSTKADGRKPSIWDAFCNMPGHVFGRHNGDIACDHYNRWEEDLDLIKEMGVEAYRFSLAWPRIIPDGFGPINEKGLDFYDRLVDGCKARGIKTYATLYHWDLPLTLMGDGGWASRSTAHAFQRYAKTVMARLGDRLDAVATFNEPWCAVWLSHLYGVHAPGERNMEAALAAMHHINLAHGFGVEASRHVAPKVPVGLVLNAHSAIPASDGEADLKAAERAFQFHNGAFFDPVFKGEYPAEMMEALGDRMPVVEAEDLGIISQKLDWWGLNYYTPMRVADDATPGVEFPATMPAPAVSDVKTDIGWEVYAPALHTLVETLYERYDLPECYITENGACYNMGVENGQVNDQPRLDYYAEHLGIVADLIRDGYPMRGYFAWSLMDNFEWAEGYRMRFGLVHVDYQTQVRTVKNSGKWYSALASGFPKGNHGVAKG
The series is described as follows: Oligomerization of bis(indoxyl-glucoside) 46 with β-glucosidase from Agrobacterium. Format: biochemical. The following applies: precipitate from 300 μM of 46 suspended in H2O. How it is done:
Oligomerization of 46 was carried out by treatment with β-glucosidase from Agrobacterium (200 nM) in 10 mM phosphate buffer (pH 7) at 37° C. for 2-4 h (Scheme 9). Precipitation occurred during the reaction. After centrifugation, the precipitate was separated from the supernatant, washed with H2O, and dried to afford a blue solid.
The efficacy of the indigogenic oligomerization was examined under a variety of conditions. As shown in entries 1˜4 in Table 2, the yield of indigoid dye in the supernatant versus precipitate reversed as the concentration of 46 was decreased from 300 to 10 μM, although the total yields were in the range 17-29%. While the reactions in entries 1˜4 were carried out in phosphate buffer containing NaCl (0.05 M), those of entries 5 and 6 (with 300 and 50 μM of 46, respectively) were conducted in NaCl-free phosphate buffer. The use of NaCl-free phosphate buffer facilitated extraction of the indigoid dye in the supernatant for analysis.
The time course of the oligomerization was examined under the reaction conditions listed in entry 5 of Table 2, with 300 μM of 46. Noticeable changes include observation of blue clouding and color deepening at 20 min. Centrifugation enabled isolation of the precipitate. […] The absorption spectrum of the precipitate was examined in DMF/DMSO (9:1) and compared with that of the extracted supernatant (in DMF) and 43 (in DMF) (FIG. 10D). […]

Regarding `O=S(=O)([O-])CCC[N+]1(CCCO)CCN(c2nc(OCCOCCOCCOc3c(Br)cc4[nH]cc(O[C@@H]5O[C@H](CO)[C@@H](O)[C@H](O)[C@H]5O)c4c3Br)nc(OCCOCCOCCOc3c(Br)cc4[nH]cc(O[C@@H]5O[C@H](CO)[C@@H](O)[C@H](O)[C@H]5O)c4c3Br)n2)CC1` [compound 46], the “particle size of precipitate by DLS (number mean)” value is given as around 680 nm.
